Laboratory results: patent US20170027955A1, “EXPRESSION LEVELS OF BCL-XL, BCL2, BCL-W, AND BAD AND CANCER THERAPIES” (Constellation Pharmaceuticals, Inc., priority 2014, published 2017)

Tests used:
NOMO-1 cells = assay: BETi-resistant NOMO-1 AML cells: proliferation and viability; type: cell-based
Method: A BETi-resistant acute myeloid leukemia (AML) cell line was prepared. NOMO-1 cells were treated with increasing concentrations of (9), and when the population consisted of less than 80% live cells, viable cells were enriched by spinning over Ficoll-Paque (GE Healthcare). At the end of this procedure cells were able to proliferate in the presence of 1 μM (9), and were maintained at this dose, which is about 30-fold higher than their original GI50 (FIG. 6A). The ideal growth conditions for the BETi-tolerant cells appeared to be in the presence of ˜0.1 μM (9). While parental cells induced a robust apoptotic response in response to BETi, resistant cells grown in the presence of BETi only underwent apoptosis when the inhibitor was completely removed (FIG. 6B).
(See e.g., Fernald and Kurokawa. Evading Apoptosis in Cancer. Trends Cell Biol. 2013 December; 23(12): 620-633.) Expression of the pro-apoptotic gene BCL2L11 (encoding BIM) was increased in parental cells upon treatment with BETi (FIG. 6C). The relative expression ratio of BCL2L11/BCL2 correlated with the apoptotic response in parental cells (FIG. 6D). In the resistant cells cultured in the presence of (9), high levels of BIM were maintained (FIG. 6C). […]

[1] = tested on: BET inhibitor resistant A375 cells; assay: Co-treatment of BET inhibitor resistant A375 cells with (9) and ABT-737 for 11 days; type: cell-based, human; conditions: resistant A375 cells co-treated with 1 μM (9) and increasing concentrations of ABT-737, 11 days
Method: BCL-xL is targeted by several commercially available BCL-2 family small molecule inhibitors (Billard, C. et al. BH3 mimetics: status of the field and new developments. Mol Cancer Ther. 2013 September; 12(9):1691-700). To test whether pharmacological inhibition of BCL-xL would restore sensitivity to BET inhibition in BET inhibitor resistant A375 cells, parental and resistant cells were co-treated with 1 μM (9) or DMSO and increasing concentrations of the pan-BCL2 inhibitor ABT-737 for 11 days (Ottersdorf, T., et al. An inhibitor of Bcl-2 family proteins induces regression of solid tumours. Nature. 2005 Jun. 2; 435(7042):677-81).

AMO-1 cell line = assay: Sub-G1 (apoptosis) and G0/G1 (G1 arrest) DNA content after 4 days of treatment, flow cytometry; type: cell-based
Method: (§1) Approximately 60 hematological cancer cell lines were profiled, with representative numbers of leukemia, multiple myeloma/plasmacytoma, and lymphoma cell lines. Cells were grown in the presence of BET inhibitors, (9), (10), and (11), for 4 days. Viability was measured using a fluorescent dye (resazurin, Sigma) that measures mitochondrial fitness as a proxy for cell number. Raw fluorescence values at each compound concentration were normalized to the values in the absence of compound, and percentage growth was plotted to determine the concentration of compound at which 50% growth inhibition was achieved (GI50). Cells were then fixed and stained with propidium iodide for flow cytometric determination of cell cycle distribution. The percentage of cells with less than G0/G1 DNA content (% subG1) was used as a measurement of apoptosis. The percentage of viable cells (non-subG1 cells) with G0/G1 DNA content was measured, and the % GI for control cells was subtracted from the % GI at each compound concentration to calculate a percentage increase in G1.
The bottom panels show the dose dependent increase in the percentage of cells with sub-G1 DNA content (apoptosis) and G0/G1 DNA content (G1 arrest) in response to 4 days of treatment with the same BET inhibitors in the AMO-1 cell line.

[2] = tested on: panel of 245 cell lines of varying lineages; assay: Viability of a panel of 245 cell lines treated with BET inhibitor for 3 or 4 d (Cell Titer Glo or resazurin); type: cell-based
Method: In order to identify predictive biomarkers for phenotypic response to BET inhibition, viability data was obtained for a panel of cell lines for which gene expression data are available. A panel of 245 cell lines of varying lineages (FIG. 7) was treated with the BET bromodomain inhibitor (9) for 3 or 4 d. Viability was assessed using either Cell Titer Glo (Promega) or resazurin (Sigma). GI50 values were determined as the concentration of inhibitor that caused viability to be reduced by 50% relative to the vehicle-treated control cells. Cell lines were defined as “sensitive” if GI50 values were at or below 0.25 μM, and as “insensitive” if GI50 values were above 0.25 μM. […] Where multiple probe sets were available for a given gene, the probe set that hybridized to all transcript variants and gave the largest standard deviation across the panel of cell lines was chosen. Based on the correlations shown in FIGS. 8 and 9, cell lines expressing high levels of BCL2 were defined as those expressing an RMA value of BCL2 within the top 33% of all 245 cell lines. Similarly, cell lines expressing low levels of BCL2L1, BCL2L2, and BAD were defined as those expressing RMA values of these genes within the bottom 33% of all cell lines. […] Further enrichment was obtained by combining criteria, with the highest enrichment obtained by selecting for cell lines with high expression of BCL2 and low expression of BCL2L1 (65%±7% response rate) or high expression of BCL2 and low expression of BAD (75%±6% response rate) (FIG. 11). Similar enrichment of responsive cell lines is obtained when cell lines of hematologic origin are considered separately from those of solid tumor origin (FIG. 12-15).

A375 cells = assay: Growth inhibition (GI50) of A375 cells by BET inhibitor; type: cell-based, human
Method: as §1
The human melanoma cell line A375 is phenotypically sensitive to BET inhibition, with a GI50 of 0.10 μM for (9) (FIG. 3, top panel). To understand possible mechanisms of acquired and de novo resistance to BET inhibition, A375 cells were grown in the presence of 1 μM of (9) for approximately 90 days. […]

Compound: CC1(C)CCC(CN2CCN(c3ccc(C(=O)NS(=O)(=O)c4ccc(NCC5CCOCC5)c([N+](=O)[O-])c4)c(Oc4cnc5[nH]ccc5c4)c3)CC2)=C(c2ccc(Cl)cc2)C1 [ABT-199, reference compound]
- phenotypic sensitivity of resistant cells to BCL2 inhibitor (NOMO-1 cells; resistant NOMO-1 cells, FIG. 6f): increased phenotypic sensitivity

Compound: CN(C)CC[C@H](CSc1ccccc1)Nc1ccc(S(=O)(=O)NC(=O)c2ccc(N3CCN(Cc4ccccc4-c4ccc(Cl)cc4)CC3)cc2)cc1[N+](=O)[O-] [ABT-737]
- restoration of sensitivity to (9) [1]: restores sensitivity to (9) in a dose-dependent manner

Compound: Cc1noc2c1-c1ccc(-c3cnn(C)c3)cc1C(c1ccc(Cl)cc1)=N[C@H]2CC(N)=O [(11)]
- maximal response (% sub-G1 and G0/G1 DNA content) (AMO-1 cell line): equivalent

Compound: Cc1noc2c1-c1ccccc1C(c1ccc(Cl)cc1)=N[C@H]2CC(N)=O [(10)]
- maximal response (% sub-G1 and G0/G1 DNA content) (AMO-1 cell line): equivalent

Compound: Cc1sc2c(c1C)C(c1ccc(Cl)cc1)=N[C@@H](CC(N)=O)c1nnc(C)n1-2 [(9)]
- maintenance concentration of resistant cells (1 μM) relative to original GI50 (NOMO-1 cells; BETi-resistant NOMO-1 cells proliferating in 1 μM (9)): about 30 fold
- overall response rate (fraction of cell lines with GI50 equal to or less than 0.25 μM) ([2]; all 245 cell lines): 28%
- response rate (fraction of cell lines with GI50 equal to or less than 0.25 μM) ([2]; cell lines with high expression of BCL2 and low expression of BAD): 75%±6%
- response rate (fraction of cell lines with GI50 equal to or less than 0.25 μM) ([2]; cell lines with high expression of BCL2 and low expression of BCL2L1): 65%±7%
- maximal response (% sub-G1 and G0/G1 DNA content) (AMO-1 cell line): equivalent
- shift in GI50 of resistant clones relative to parental cells (A375 cells; A375 clones grown in 1 μM (9) for approximately 90 days, after 11 days): relatively modest shift in GI50
- GI50 (A375 cells; A-375, parental human melanoma cell line A375): 100 nM
